From patent EP0385952A2, “Use of a naphthalenmethanamino derivative as antiinflammatory agent and pharmaceutical compositions containing it” (SANDOZ AG, priority 1989, dated 1990)
Like-named read-outs stand apart in the source and are kept apart here. Marks after values point to notes of the source that are not given here.

How the values were obtained:
[1] = test system: Macrophages isolated from the bone marrow of mice; test: Inhibition of Con A-stimulated plasminogen activator release; type: cell-based; settings: Mus musculus, Macrophage; Con A 100 µg/ml, 24 hours; read-out: IC₅₀, Con A-stimulated plasminogen activator release
Experimental: Macrophages 10 to 14 days old isolated from the bone marrow of mice are incubated in monolayers with the test compound in the presence of Concanavalin A (Con A) (100 µg/ml) as soluble stimulant. After 24 hours the cell-free medium is collected and macrophage activation is investigated biochemically as the extent of plasminogen activator release, assayed photometrically as the plasminogen-dependent amidolysis of D-Val-Phe-Lys-4-nitroanilide according to the principles described in J.C. Drapier et al., Biochemie 61 (1979) 463-471. Cell viability is assayed by measurement of lactate dehydrogenase release according to the method of H.U. Bergmeyer and E. Bernt, Methoden der Enzymatischen Analyse, 3. Auflage, Verlag Chemie (1974) 612-615, adapted as a kinetic assay using microtiter plates. All cultures are checked microscopically for qualitative morphological modification.

[2] = test system: Macrophages isolated from the bone marrow of mice; test: Zymosan-stimulated release of hydrogen peroxide; type: cell-based; settings: Mus musculus, Macrophage, 2 hours at 37° C, read-out: IC₅₀, zymosan-stimulated release of hydrogen peroxide
Experimental: The production of hydrogen peroxide is used as a measure for the respiratory burst of phagocytic cells. Macrophages 10 to 14 days old, isolated from the bone marrow of mice are incubated for 10 to 30 minutes in the presence of the test compound. Zymosan (0.5 ml) is then added as phagocytic stimulant and the mixture is incubated for a further 2 hours at 37° C in the presence of homovallinic acid (0.5 ml, 400 µM) and horse radish peroxidase (4 U/ml). The reaction is stopped by the addition of 0.25 ml 0.1 M glycine-NaOH buffer, pH 12, containing 25 mM EDTA, the samples centrifuged at 2200 g for 10 minutes, and the homovallinic acid oxidation product, as a measure of the amount of H₂O₂ produced, measured fluorimetrically.

[3] = test system: Peritoneal exudate cells of NMRI mice (macrophage population); test: TPA-induced prostaglandin E₂ (PGE₂) release; type: cell-based; settings: Mus musculus, TPA 20 ng/ml, 1h, read-out: IC₅₀ for the inhibition of TPA-induced PGE₂ release
Experimental: Peritoneal exudate cells of NMRI mice (strain NMRI) pretreated with 1.5 ml thioglycollate ip 3 days previously are harvested by peritoneal lavage, washed in phosphate-buffered saline (PBS without Ca⁺⁺ and Mg⁺⁺) and resuspended in DMEM medium supplemented with 10 % fetal calf serum (FCS). 1x10⁶ cells in 1 ml are placed into wells of Costar-24 tissue culture plates and cells are allowed to adhere for 24 hours at 37°C and 5 % CO₂. Cells are then washed twice with PBS and the remaining, more than 95 % pure macrophage population is stimulated with 12-O-tetradecanoylphorbol-13-acetate (TPA) (20 ng/ml, 1h) in DMEM medium without FCS. Conditioned media are centrifuged and PGE₂ levels are determined using a ¹²⁵I radioimmunoassay. Samples are assayed in duplicate. Inhibition of PGE₂ release by test compounds is calculated as percent inhibition compared to the controls.

bovine platelets = test: Thrombin-stimulated release from platelets; type: cell-based; settings: Bos taurus, Platelet
platelets = test: Thromboxane B₂ production in platelets; type: cell-based; settings: Platelet, read-out: IC₅₀ for thromboxane B₂ production
mast cells = test: Polymyxin-stimulated release from mast cells; type: cell-based; settings: Mast cell
[4] = test system: Cyclooxygenase (prostaglandin synthetase); test: Cyclooxygenase inhibition; type: biochemical; settings: at 100 µM
NMRI mice [5] = test: Arachidonic acid-induced pinnal swelling in mice (irritant contact dermatitis, 2.1.1.); type: in vivo; settings: prophylactic, epicutaneous, pinnal weight
Experimental: Skin irritation with arachidonic acid or cantharidin is often used to experimentally induce inflammation in order to evaluate the anti-inflammatory activity of a compound [see e.g. Inflammation 8 (1984) 134-135; 10 (1986) 205-214]. NMRI mice (8 animals per group) receive 10 µl of a 10 % solution of arachidonic acid [J.M. Young et al., J. Invest. Derm. 82 (1986) 367-371] in acetone or, respectively, 0.08 % cantharidin [K.E. Swingle et al., Arch. Int. Pharmacodyn. Ther. 254 (1981) 168-176] in acetone applied to the medial and lateral surface of the right external ear. Treatment is performed either prophylactically 30 minutes before irritation (arachidonic acid) or, respectively, either simultaneously with the application of irritant solution or therapeutically 20 minutes after irritation (cantharidin), by a single epicutaneous application of the test compound dissolved in a mixture of N,N-dimethylacetamide, acetone and alcohol (2:2:4). The evaluation of the test group is effected by comparison with a control group of animals having received on the right ear lobe only the carrier substance or the irritant solution. The animals are killed 1.5 hours (arachidonic acid) or, respectively, 17 hours (cantharidin) after application of the irritant and efficacy in assessed by determination of the differences in auricular weight. Differences in weights (D) of right (involved) and left (uninvolved) pinnae of animals treated with test compound and arachidonic acid or cantharidin (T-group) are compared with differences in mice treated with arachidonic acid only or cantharidin only (C-group). Efficacy (%) is calculated according to the equation: [formula]

NMRI mice [6] = test: Allergic contact dermatitis to oxazolone (2.3.); type: in vivo; settings: therapeutic, test concentration 3.6 %, topical twice, pinnal weight after 24 hours, 0̸ = no activity
Experimental: Skin irritation with arachidonic acid or cantharidin is often used to experimentally induce inflammation in order to evaluate the anti-inflammatory activity of a compound [see e.g. Inflammation 8 (1984) 134-135; 10 (1986) 205-214]. NMRI mice (8 animals per group) receive 10 µl of a 10 % solution of arachidonic acid [J.M. Young et al., J. Invest. Derm. 82 (1986) 367-371] in acetone or, respectively, 0.08 % cantharidin [K.E. Swingle et al., Arch. Int. Pharmacodyn. Ther. 254 (1981) 168-176] in acetone applied to the medial and lateral surface of the right external ear. […] The animals are killed 1.5 hours (arachidonic acid) or, respectively, 17 hours (cantharidin) after application of the irritant and efficacy in assessed by determination of the differences in auricular weight. […] Efficacy (%) is calculated according to the equation: [formula]
The inhibition of allergic contact dermatitis to oxazolone in mice is determined. […] 24 hours after skin testing treatment-related inhibition of contact dermatitis is assessed by pinnal weight as described above (see 2.1.1.). […]

For CN(C/C=C/c1ccc(O)cc1)Cc1cccc2ccccc12 [compound of the invention, (E)-N-methyl-N-[3-(4-hydroxyphenyl)-2-propenyl]-1-naphthalene-methanamine], the IC50 [1] was 1.8 µM, the IC50 [2] was 2.1 µM and the IC50 [3] was 1 to 3 µM. For the same compound, the IC50 (bovine platelets; read-out: IC₅₀ for thrombin-stimulated release of N-glucosaminidase) was > 100 µM, the IC50 (bovine platelets; read-out: IC₅₀ for thrombin-stimulated release of serotonin) was > 100 µM and the IC50 (platelets) was 100 µM. The IC50 (mast cells; read-out: IC₅₀ for polymyxin-stimulated release of histamine) was > 100 µM, the IC50 (mast cells; read-out: IC₅₀ for polymyxin-stimulated release of β-glucosaminidase) was > 100 µM and the “Cyclooxygenase (prostaglandin synthetase) inhibition” value [4] was “not inhibited”. For the same compound, the “Efficacy (%)” value (NMRI mice [5]; test concentration 1.2 %) was 33** %, the “Efficacy (%)” value (NMRI mice [5]; test concentration 3.6 %) was 48*** % and the “Efficacy (%)” value (NMRI mice [6]) was 42** %.
